Laboratory results reported in PMC10074544 (Cell chemical biology, 2023).
Structures can show the parent of a compound that is named as a salt. Residues, ends and D or L forms follow the SMILES beside them. *: point of attachment. Cbz = O=C(OCc1ccccc1)*

Key:
CDK9 [1] = molecular target: T1, CDK9 (Homo sapiens, UniProt P50750); assay: CDK9 degradation in MOLT4 cells; assay type: cell-based; conditions: for effect of pre-treatment on CDK9 degradation by 955: pre-treatment before 955
EML4-ALK = EML4-ALK (Homo sapiens, UniProt Q9HC35+Q9UM73); assay: EML4-ALK degradation in NCI-H2228 cells; assay type: cell-based; conditions: for effect of pre-treatment on EML4-ALK degradation induced by 819: NCI-H2228 cells
CDK10 [2] = molecular target: T2, CDK10 (Homo sapiens, UniProt Q15131); assay: CDK10 degradation in MOLT4 cells; assay type: cell-based
DU145 = assay: Viability; assay type: cell-based, human
22RV1 = assay: Viability; assay type: cell-based, human
PC3 = assay: Viability; assay type: cell-based, human
LNCaP = assay: Viability; assay type: cell-based, human
[3] = test system: LNCaP prostate cancer cells; assay: Cell killing in KEAP1 siRNA- vs control siRNA-treated LNCaP cells; assay type: cell-based, human; conditions: 24 h treatment
CDK9 [4] = conditions: read-out: IC50 CDK9; cited from earlier work
CDK10 [5] = molecular target: T2, CDK10; conditions: MOLT4 lysates; cited from earlier work
CDK9 [6] = molecular target: T1, CDK9; assay: TMT-based global proteomics in MOLT4 cells, CDK9; assay type: cell-based
H1299 lung cancer cells = assay: Cell killing in KEAP1 siRNA- vs control siRNA-treated H1299 cells; assay type: cell-based, human; conditions: 24 h treatment
CDK9 [7] = conditions: cited from earlier work
[8] = molecular target: CDK9:955:KEAP1 ternary complex (Homo sapiens, UniProt P50750+Q14145); assay: NanoBRET ternary complex formation assay in live 293T cells; assay type: cell-based; conditions: HiBit-CDK9 and Halo-KEAP1, 6 h
purified KEAP1 protein = purified KEAP1 protein (Homo sapiens, UniProt Q14145); assay: Gel-based competitive ABPP assay with IA-alkyne; assay type: binding; conditions: serially diluted compound, purified His-KEAP1
MOLT4 cells = assay: PARP cleavage; assay type: cell-based, human; conditions: compared with SNS-032
c-Myc and MCL-1 [9] = assay: c-Myc and MCL-1 expression in MOLT4 cells; assay type: cell-based, human; conditions: mRNA and protein
V5-TurboID-CDK9 = V5-TurboID-CDK9 (Homo sapiens, UniProt P50750+Q14145); assay: TurboID-bait assay in 293T cells; assay type: cell-based
CDK9 [10] = molecular target: T1, CDK9; assay: CDK9 degradation in LNCaP cells; assay type: cell-based
c-Myc and MCL-1 [11] = assay: c-Myc and MCL-1 expression in LNCaP cells; assay type: cell-based, human
CDK9 [12] = molecular target: T1, CDK9; assay: CDK9 degradation in KEAP1 knockout / rescued H1299 cells; assay type: cell-based
[13] = test system: CDK9-dependent transcription; assay: RNA-seq in MOLT4 cells; assay type: cell-based, human; conditions: 6 h treatment, compared with SNS-032
[14] = PL or SNS-032 alone or their combination (Figure 1E)
[15] = 955 versus 336 with reduced Michael acceptors (Figure 2H)

T2 sequence (Q15131 whole entry): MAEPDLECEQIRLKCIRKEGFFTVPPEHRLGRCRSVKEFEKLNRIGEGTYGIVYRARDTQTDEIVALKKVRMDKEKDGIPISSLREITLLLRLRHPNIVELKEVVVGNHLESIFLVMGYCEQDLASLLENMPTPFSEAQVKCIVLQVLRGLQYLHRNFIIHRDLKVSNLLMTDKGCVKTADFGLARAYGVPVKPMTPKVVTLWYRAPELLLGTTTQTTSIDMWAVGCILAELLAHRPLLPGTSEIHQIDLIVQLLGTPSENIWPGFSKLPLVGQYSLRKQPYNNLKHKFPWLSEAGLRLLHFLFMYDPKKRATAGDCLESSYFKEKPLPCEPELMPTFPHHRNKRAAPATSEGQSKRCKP
T1 sequence (P50750 whole entry): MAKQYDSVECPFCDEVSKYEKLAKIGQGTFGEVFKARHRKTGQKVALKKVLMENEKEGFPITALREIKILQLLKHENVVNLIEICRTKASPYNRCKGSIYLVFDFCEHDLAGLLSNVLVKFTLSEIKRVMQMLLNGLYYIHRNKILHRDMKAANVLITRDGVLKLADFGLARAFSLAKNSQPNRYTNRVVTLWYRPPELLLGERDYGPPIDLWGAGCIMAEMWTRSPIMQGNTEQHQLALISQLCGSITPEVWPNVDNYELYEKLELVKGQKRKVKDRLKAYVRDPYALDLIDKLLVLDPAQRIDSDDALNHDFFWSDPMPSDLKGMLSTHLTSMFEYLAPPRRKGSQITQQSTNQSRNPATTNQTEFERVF
Sequence of CDK9:955:KEAP1 ternary complex (P50750 whole entry): as above
Sequence of CDK9:955:KEAP1 ternary complex (Q14145 whole entry): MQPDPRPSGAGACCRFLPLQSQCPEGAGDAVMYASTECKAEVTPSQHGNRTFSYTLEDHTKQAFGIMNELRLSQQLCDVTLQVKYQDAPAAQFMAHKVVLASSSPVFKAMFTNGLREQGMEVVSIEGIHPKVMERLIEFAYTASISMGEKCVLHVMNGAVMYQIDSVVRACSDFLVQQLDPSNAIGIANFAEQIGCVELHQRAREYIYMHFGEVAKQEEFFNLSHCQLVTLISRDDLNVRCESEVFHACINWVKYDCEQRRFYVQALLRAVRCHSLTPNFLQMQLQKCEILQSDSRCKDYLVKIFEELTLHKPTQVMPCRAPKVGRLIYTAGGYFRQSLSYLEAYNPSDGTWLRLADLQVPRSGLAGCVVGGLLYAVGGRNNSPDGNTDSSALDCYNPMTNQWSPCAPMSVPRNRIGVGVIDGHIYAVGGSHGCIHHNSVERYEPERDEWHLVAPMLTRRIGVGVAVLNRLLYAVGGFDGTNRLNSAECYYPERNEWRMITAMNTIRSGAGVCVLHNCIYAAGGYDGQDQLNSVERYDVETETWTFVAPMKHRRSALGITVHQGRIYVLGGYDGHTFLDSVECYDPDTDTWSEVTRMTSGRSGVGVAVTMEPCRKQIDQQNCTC
Sequence of CDK9:955:KEAP1 ternary complex (O60563 whole entry partner): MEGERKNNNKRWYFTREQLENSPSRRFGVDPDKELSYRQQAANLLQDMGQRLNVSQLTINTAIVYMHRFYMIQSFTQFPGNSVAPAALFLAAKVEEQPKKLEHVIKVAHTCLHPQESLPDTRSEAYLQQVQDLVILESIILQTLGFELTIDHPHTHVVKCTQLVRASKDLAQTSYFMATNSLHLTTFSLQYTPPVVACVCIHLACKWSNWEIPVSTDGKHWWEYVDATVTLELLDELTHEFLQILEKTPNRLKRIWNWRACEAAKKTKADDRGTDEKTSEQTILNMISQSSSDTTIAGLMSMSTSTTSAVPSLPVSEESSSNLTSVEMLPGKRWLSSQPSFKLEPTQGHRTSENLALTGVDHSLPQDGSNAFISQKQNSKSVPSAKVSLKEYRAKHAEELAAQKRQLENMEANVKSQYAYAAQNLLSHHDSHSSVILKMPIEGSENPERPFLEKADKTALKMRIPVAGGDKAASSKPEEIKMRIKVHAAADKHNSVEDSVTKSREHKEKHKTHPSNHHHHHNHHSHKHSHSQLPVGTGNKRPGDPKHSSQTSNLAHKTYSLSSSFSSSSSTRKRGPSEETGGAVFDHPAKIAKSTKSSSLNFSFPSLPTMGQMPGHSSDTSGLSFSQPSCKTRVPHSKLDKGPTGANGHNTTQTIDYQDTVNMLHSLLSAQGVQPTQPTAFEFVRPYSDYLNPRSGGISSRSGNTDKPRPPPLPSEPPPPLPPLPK
Sequence of V5-TurboID-CDK9 (P50750 whole entry): as the sequence (P50750 whole entry) above
Sequence of V5-TurboID-CDK9 (Q14145 whole entry): as the sequence (Q14145 whole entry) above
Sequence of V5-TurboID-CDK9 (O60563 whole entry partner): as the sequence (O60563 whole entry partner) above
Sequence of purified KEAP1 protein (Q14145 whole entry): as the sequence (Q14145 whole entry) above

SMILES: CO/C1=C\C(C)=C\[C@@H](C)[C@@H](O)[C@@H](C)C/C(C)=C/C=C/[C@H](OC)[C@@H]([C@@H](C)[C@@H](O)[C@H](C)[C@@]2(O)C[C@@H](O)[C@H](C)[C@@H](C(C)C)O2)OC1=O [Baf-A1]
- effect of pre-treatment on CDK9 degradation by 955 (CDK9 [1]): does not block

SMILES: CC1(C)CC[C@]2(C(=O)n3ccnc3)CC[C@]3(C)[C@H](C(=O)C=C4[C@@]5(C)C=C(C#N)C(=O)C(C)(C)[C@@H]5CC[C@]43C)[C@@H]2C1 [CDDO-IM]
- effect of pre-treatment on CDK9 degradation by 955 (CDK9 [1]): blocks

SMILES: COC(=O)[C@]12CCC(C)(C)C[C@H]1[C@H]1C(=O)C=C3[C@@]4(C)C=C(C#N)C(=O)C(C)(C)[C@@H]4CC[C@@]3(C)[C@]1(C)CC2 [CDDO-ME]
- effect of pre-treatment on CDK9 degradation by 955 (CDK9 [1]): blocks

SMILES: COC(=O)/C=C/C(=O)OC [DMF, dimethyl fumarate]
- effect of pre-treatment on CDK9 degradation by 955 (CDK9 [1]): blocks
- effect of pre-treatment on EML4-ALK degradation induced by 819 (EML4-ALK): blocks

SMILES: CC(C)C[C@@H](C=O)NC(=O)[C@H](CC(C)C)NC(=O)[C@H](CC(C)C)NC(=O)OCc1ccccc1 [MG132] (Cbz-Leu-Leu-Leu-aldehyde)
- effect of pre-treatment on CDK9 degradation by 955 (CDK9 [1]): blocks
- effect of pre-treatment on EML4-ALK degradation induced by 819 (EML4-ALK): blocks
- effect of pre-treatment on CDK10 degradation induced by 955 (CDK10 [2]): blocks

SMILES: NS(=O)(=O)OC[C@@H]1C[C@@H](n2ccc3c(N[C@H]4CCc5ccccc54)ncnc32)C[C@@H]1O [MLN4924]
- effect of pre-treatment on CDK9 degradation by 955 (CDK9 [1]): blocks
- effect of pre-treatment on EML4-ALK degradation induced by 819 (EML4-ALK): blocks
- effect of pre-treatment on CDK10 degradation induced by 955 (CDK10 [2]): blocks

SMILES: COc1cc(/C=C/C(=O)N2CCC=CC2=O)cc(OC)c1OC [PL, (E)-1-(3-(3,4,5-trimethoxyphenyl)acryloyl)-5,6-dihydropyridin-2(1H)-one]
- anti-proliferative effect (DU145; DU145, within 3 μM): no anti-proliferative effect
- CDK9 degradation (CDK9 [1]; [14]): none of these treatments degraded CDK9
- effect of pre-treatment on CDK9 degradation by 955 (CDK9 [1]): blocks
- anti-proliferative effect (22RV1; 22RV1, within 3 μM): no anti-proliferative effect
- anti-proliferative effect (PC3; PC3, within 3 μM): no anti-proliferative effect
- anti-proliferative effect (LNCaP; within 3 μM): no anti-proliferative effect

SMILES: CCOC(=O)c1ccc(N2NC(=O)/C(=C/c3ccc([N+](=O)[O-])o3)C2=O)cc1 [PYR-41]
- effect of pre-treatment on CDK9 degradation by 955 (CDK9 [1]): blocks

SMILES: CC(C)[C@H](NC(=O)c1ccc2ccccc2n1)C(=O)N[C@@H](CC(=O)O)C(=O)COc1c(F)cccc1F [QVD]
- effect of pre-treatment on CDK9 degradation by 955 (CDK9 [1]): does not block

SMILES: CC(C)(C)c1cnc(CSc2cnc(NC(=O)C3CCNCC3)s2)o1 [SNS-032, N-(5-(((5-(tert-butyl)oxazol-2-yl)methyl)thio)thiazol-2-yl)piperidine-4-carboxamide]
- effect of KEAP1 knockdown on cytotoxicity [3]: no significant effect
- EC50 (DU145; Homo sapiens, DU-145, 72 h, read-out: EC50 (antiproliferative)): > 100 nM
- CDK9 degradation (CDK9 [1]; [14]): none of these treatments degraded CDK9
- effect of pre-treatment on CDK9 degradation by 955 (CDK9 [1]): blocks
- CDK9 degradation (CDK9 [1]; short-term treatment (6 h)): could not
- EC50 (22RV1; Homo sapiens, 22Rv1, 72 h, read-out: EC50 (antiproliferative)): > 100 nM
- EC50 (PC3; Homo sapiens, PC-3, 72 h, read-out: EC50 (antiproliferative)): > 100 nM
- binding to CDK10 (CDK10 [5]): moderate binding
- CDK9 level (global proteome) (CDK9 [6]; 1 μM for 6 h): no significant effect
- EC50 (LNCaP; Homo sapiens, 72 h, read-out: EC50 (antiproliferative)): > 100 nM
- effect of KEAP1 knockdown on cytotoxicity (H1299 lung cancer cells): no significant effect
- CDK10 degradation (CDK10 [2]): no effect

SMILES: NS(=O)(=O)OC[C@H]1C[C@@H](Nc2ccnc3cc(-c4cccc(SC(F)(F)F)c4)nn23)[C@H](O)[C@@H]1O [TAK-243]
- effect of pre-treatment on CDK9 degradation by 955 (CDK9 [1]): blocks

SMILES: CC(C)(C)c1cnc(CSc2cnc(NC(=O)C3CCN(CC(=O)NCCOCCOCCOCCNc4cccc5c4C(=O)N(C4CCC(=O)NC4=O)C5=O)CC3)s2)o1 (stereo not drawn) [THAL-SNS-032]
- selectivity of degradation among SNS-032 targets (CDK9 [7]): could only degrade CDK9 but not other known SNS-032 targets

SMILES: CC(C)C[C@H](NC(=O)[C@H](Cc1ccccc1)NC(=O)c1cnccn1)B(O)O [bortezomib]
- effect of pre-treatment on CDK9 degradation by 955 (CDK9 [1]): blocks

SMILES: CCN(CC)CCCC(C)Nc1ccnc2cc(Cl)ccc12 (stereo not drawn) [chloroquine]
- effect of pre-treatment on CDK9 degradation by 955 (CDK9 [1]): does not block

SMILES: COc1cc(CCC(=O)N2CCCCC2=O)cc(OC)c1OCCN1CCN(C(=O)CN2CCC(C(=O)Nc3ncc(SCc4ncc(C(C)(C)C)o4)s3)CC2)CC1 [compound 336, N-(5-(((5-(tert-butyl)oxazol-2-yl)methyl)thio)thiazol-2-yl)-1-(2-(4-(2-(2,6-dimethoxy-4-(3-oxo-3-(2-oxopiperidin-1-yl)propyl)phenoxy)ethyl)piperazin-1-yl)-2-oxoethyl)piperidine-4-carboxamide]
- effect of KEAP1 knockdown on cytotoxicity [3]: no significant effect
- CDK9 degradation (CDK9 [1]; [15]): does not induce CDK9 degradation
- formation of CDK9:KEAP1 ternary complex (nanoBRET) [8]: negligible
- effect of KEAP1 knockdown on cytotoxicity (H1299 lung cancer cells): no significant effect

SMILES: COc1cc(/C=C/C(=O)N2CCC=CC2=O)cc(OC)c1OCC(=O)N1CCC(c2cc(OC(C)C)c(Nc3ncc(Cl)c(Nc4ccccc4S(=O)(=O)C(C)C)n3)cc2C)CC1 [compound 819, (E)-1-(3-(4-(2-(4-(4-((5-chloro-4-((2-(isopropylsulfonyl)phenyl)amino)pyrimidin-2-yl)amino)-5-isopropoxy-2-methylphenyl)piperidin-1-yl)-2-oxoethoxy)-3,5-dimethoxyphenyl)acryloyl)-5,6-dihydropyridin-2(1H)-one]
- EML4-ALK degradation (EML4-ALK; NCI-H2228 NSCLC cells): can degrade EML4-ALK in a concentration-dependent manner

SMILES: COc1cc(/C=C/C(=O)N2CCC=CC2=O)cc(OC)c1OCCN1CCN(C(=O)CN2CCC(C(=O)Nc3ncc(SCc4ncc(C(C)(C)C)o4)s3)CC2)CC1 [compound 955, (E)-N-(5-(((5-(tert-butyl)oxazol-2-yl)methyl)thio)thiazol-2-yl)-1-(2-(4-(2-(2,6-dimethoxy-4-(3-oxo-3-(6-oxo-3,6-dihydropyridin-1(2H)-yl)prop-1-en-1-yl)phenoxy)ethyl)piperazin-1-yl)-2-oxoethyl)piperidine-4-carboxamide]
- effect of KEAP1 knockdown on cytotoxicity [3]: attenuated the cytotoxicity
- time to almost complete degradation of CDK9 (CDK9 [1]; 0.1 μM, time course): ≤ 8 h
- CDK9 degradation (CDK9 [1]; [15]): can induce CDK9 degradation
- CDK9 degradation (CDK9 [1]; short-term treatment (6 h)): potently degrade CDK9
- duration of CDK9 degradation after removal of compound from the culture (CDK9 [1]; washout): up to 18 h
- competition with IA-alkyne for binding to KEAP1 (purified KEAP1 protein): can compete with IA-alkyne to covalently bind to KEAP1 in a concentration-dependent manner
- induction of PARP cleavage (MOLT4 cells): more potent in inducing PARP cleavage than SNS-032
- formation of CDK9:KEAP1 ternary complex (nanoBRET) [8]: can induce the formation of the CDK9:955:KEAP1 ternary complex in a dose-dependent manner
- potency relative to SNS-032 in downregulation of c-Myc and MCL-1 expression (c-Myc and MCL-1 [9]): about 10 fold
- number of E3 ligases whose interaction with CDK9 is induced (V5-TurboID-CDK9; 293T cells expressing V5-TurboID-CDK9): 6 E3 ligases
- KEAP1 pulled down (immunoblot of TurboID-bait assay) (V5-TurboID-CDK9; 293T cells, in the presence of biotin, with vs without compound): significantly more KEAP1 can be pulled down
- CDK9 degradation (CDK9 [10]): potently degraded CDK9
- c-Myc and MCL-1 expression (c-Myc and MCL-1 [11]): downregulated c-Myc and MCL-1
- CDK9 degradation after ectopic expression of Halo-tagged KEAP1 (CDK9 [12]; KEAP1 stable knockout H1299 cells, 0.1 μM, 6 h): rescued CDK9 degradation
- CDK9 degradation after depleting KEAP1 (CDK9 [12]; siRNA and CRISPR-Cas9 knock down/out of KEAP1, H1299 cells): blocked
- CDK9 level (global proteome) (CDK9 [6]; 0.1 μM for 1 h and 6 h): significant reduction of CDK9
- effect of KEAP1 knockdown on cytotoxicity (H1299 lung cancer cells): attenuated the cytotoxicity
- downregulation of CDK9-dependent transcription [13]: more potent than SNS-032
- CDK10 degradation (CDK10 [2]): potently degrade CDK10
